Patent publication US7238691B2, “Piperidine derivatives and their use as modulators of chemokine (especially CCR3) activity” (AstraZeneca AB, priority 2001, dated 2007)

Experiments:
CCR3 = target: T1, CCR3 (Homo sapiens, UniProt P51677); experiment: Human eosinophil chemotaxis (eotaxin mediated); format: cell-based; conditions: compound at 1 μM
T1 construct: Human eosinophils were isolated from EDTA anticoagulated peripheral blood; endogenous in cells; host or cells: human peripheral blood eosinophils
T1 sequence (P51677 1-355): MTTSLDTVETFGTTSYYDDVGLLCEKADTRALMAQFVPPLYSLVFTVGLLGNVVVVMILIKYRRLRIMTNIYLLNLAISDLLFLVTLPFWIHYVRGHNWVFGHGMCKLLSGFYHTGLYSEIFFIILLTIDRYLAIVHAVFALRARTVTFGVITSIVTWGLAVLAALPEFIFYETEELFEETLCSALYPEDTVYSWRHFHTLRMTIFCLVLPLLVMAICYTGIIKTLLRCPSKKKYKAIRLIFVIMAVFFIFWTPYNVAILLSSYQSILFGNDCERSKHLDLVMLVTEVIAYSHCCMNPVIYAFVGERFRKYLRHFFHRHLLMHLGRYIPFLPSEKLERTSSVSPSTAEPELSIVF
Description: Human Eosinophil Chemotaxis
Human eosinophils were isolated from EDTA anticoagulated peripheral blood as previously described (Hansel et al., J. Immunol. Methods, 1991, 145, 105-110). The cells were resuspended at 10×10^6 ml^−1 in RPMI containing 200 μg/ml penicillin, 200 μg/ml streptomycin sulfate and supplemented with 10% HIFCS, at room temperature.
Eosinophils (700 μl) were pre-incubated for 15 mins at 37° C. with 7 μl of either vehicle or compound (100× required final concentration in 10% DMSO). The chemotaxis plate (ChemoTx, 3 μm pore, Neuroprobe) was loaded by adding 28 μl of a concentration of eotaxin 0.1 to 100 nM (a selective CCR3 agonist over this concentration range) containing a concentration of a compound according to the Examples or solvent to the lower wells of the chemotaxis plate. The filter was then placed over the wells and 25 μl of eosinophil suspension were added to the top of the filter. The plate was incubated for 1 hr at 37° C. in a humidified incubator with a 95% air/5% CO2 atmosphere to allow chemotaxis.
The medium, containing cells that had not migrated, was carefully aspirated from above the filter and discarded. The filter was washed once with phosphate buffered saline (PBS) containing 5 mM EDTA to remove any adherent cells. […] The number of eosinophils migrating was quantified according to the method of Strath et al., J. Immunol. […]

human H1 receptor = target: T2, human H1 receptor (Homo sapiens, UniProt P35367); experiment: Histamine H1 receptor binding, competition displacement of [3H]-pyrilamine; conditions: 1 nM [3H]-pyrilamine; membranes from recombinant CHO-K1 cells expressing the human H1 receptor; 1 hour at room temperature; read-out: H1 pKi/ [1328_S] (converted)
T2 construct: purchased Furoscreen S A, Brussels, Belgium (so in the source); host or cells: CHO-K1
Description: Histamine H1 receptor binding activity of compounds of the invention was assessed by competition displacement of 1 nM [3H]-pyrilamine (Amersham, Bucks, Product code TRK 608, specific activity 30Ci/mmol) to 2 μg membranes prepared from recombinant CHO-K1 cells expressing the human H1 receptor (Furoscreen S A, Brussels, Belgium, product code ES-390-M) in assay buffer (50 mM Tris pH 7.4 containing 2 mM MgCl2, 250 mM sucrose and 100 mM NaCl) for 1 hour at room temperature.

T2 sequence (P35367 whole entry): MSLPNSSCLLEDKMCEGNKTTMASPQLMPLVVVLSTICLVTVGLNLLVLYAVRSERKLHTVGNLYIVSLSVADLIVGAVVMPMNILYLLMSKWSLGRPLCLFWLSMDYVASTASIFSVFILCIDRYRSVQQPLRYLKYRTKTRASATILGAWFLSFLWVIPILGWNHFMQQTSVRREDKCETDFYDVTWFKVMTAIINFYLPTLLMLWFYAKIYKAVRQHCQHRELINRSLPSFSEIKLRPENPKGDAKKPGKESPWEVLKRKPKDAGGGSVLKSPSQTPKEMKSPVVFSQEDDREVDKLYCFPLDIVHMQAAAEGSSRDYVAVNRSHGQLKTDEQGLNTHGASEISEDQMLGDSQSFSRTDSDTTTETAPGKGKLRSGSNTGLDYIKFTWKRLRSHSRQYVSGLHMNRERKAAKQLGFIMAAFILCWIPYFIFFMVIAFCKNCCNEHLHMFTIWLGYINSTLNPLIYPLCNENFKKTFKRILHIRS

CS(=O)(=O)c1cccc(C(=O)N2CCO[C@@H](CN3CCC(Oc4ccc(Cl)c(Cl)c4)CC3)C2)c1 [Example 5, (2S)-2-{[4-(3,4-Dichlorophenoxy)piperidin-1-yl]methyl}-4-[3-(methylsulfonyl)benzoyl]morpholine] was tested, and the inhibition at 1 µM (CCR3) was over 75% and the Ki (human H1 receptor) was 20 nM.
With CS(=O)(=O)c1cccc(C(=O)N2CCOC(CN3CCC(Oc4ccc(Cl)c(Cl)c4)CC3)C2)c1 (stereo not drawn) [Example 4, 2-{[4-(3,4-dichlorophenoxy)piperidin-1-yl]methyl}-4-[3-(methylsulfonyl)benzoyl]morpholine] the Ki (human H1 receptor) was 100 nM.
O=C(c1c[nH]c(=O)c2ccccc12)N1CCO[C@H](CN2CCC(Oc3ccc(Cl)c(Cl)c3)CC2)C1 [Example 73] was tested, and the inhibition at 1 µM (CCR3) was over 75% and the Ki (human H1 receptor) was 7.94 nM.
Work on O=C(c1cn2cc(F)ccc2n1)N1CCOC(CN2CCC(Oc3ccc(Cl)c(Cl)c3)CC2)C1 (stereo not drawn) [Example 3, 2-[(2-{[4-(3,4-dichlorophenoxy)piperidin-1-yl]methyl}morpholin-4-yl)carbonyl]-6-fluoroimidazo[1,2-a]pyridine] yielded a Ki (human H1 receptor) of 12.6 nM.
